Experimental data taken from the supplement of paper PMC6045584.
± gives the standard deviation of the averaged measurements.

Tests used:
ERLOTINIB = compound: C#Cc1cccc(Nc2ncnc3cc(OCCOC)c(OCCOC)cc23)c1 [ERLOTINIB]; experiment: surviving fraction relative to DMSO-only wells; higher = less growth inhibition; details: exposure time: 5 days
Method in brief: (§1)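 Each tumour cell line was screened three times, and only lines with replicate Pearson r >0.7 and median Z' >0.3 were kept. Cells in log phase were seeded at 250–500 per well in 384-well plates, left 24 hours, then exposed continuously for five days to inhibitors at 0.5, 1, 5, 10, 50, 100, 500 and 1000 nM. Viability was read as CellTiter-Glo luminescence, with surviving fraction normalised to the median of DMSO-only wells.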

VINORELBINE = compound: CCC1=C[C@@H]2CN(C1)Cc1c([nH]c3ccccc13)[C@@](C(=O)OC)(c1cc3c(cc1OC)N(C)[C@H]1[C@@](O)(C(=O)OC)[C@H](OC(C)=O)[C@]4(CC)C=CCN5CC[C@]31[C@@H]54)C2 [VINORELBINE]; experiment: as above; details: exposure time: 5 days
Method in brief: as §1

| Test System | surviving fraction (ERLOTINIB; 0.5 nM) | surviving fraction (ERLOTINIB; 1 nM) | surviving fraction (ERLOTINIB; 5 nM) | surviving fraction (ERLOTINIB; 10 nM) | surviving fraction (ERLOTINIB; 50 nM) | surviving fraction (ERLOTINIB; 100 nM) | surviving fraction (ERLOTINIB; 1000 nM) | surviving fraction (VINORELBINE; 0.5 nM) | surviving fraction (VINORELBINE; 1 nM) | surviving fraction (VINORELBINE; 5 nM) | surviving fraction (VINORELBINE; 10 nM) | surviving fraction (VINORELBINE; 50 nM) | surviving fraction (VINORELBINE; 100 nM) | surviving fraction (VINORELBINE; 500 nM) | surviving fraction (VINORELBINE; 1000 nM) | surviving fraction (ERLOTINIB; 500 nM) |
| --- | --- | --- | --- | --- | --- | --- | --- | --- | --- | --- | --- | --- | --- | --- | --- | --- |
| MDAMB453 BREAST | 1.11 ± 0.065 | 1.05 ± 0.029 | 1.11 ± 0.057 | 1.088 ± 0.0092 | 1.09 ± 0.065 | 1.06 ± 0.022 | 1.01 ± 0.026 | 1.04 ± 0.049 | 1.029 ± 0.004 | 0.387 ± 0.038 | 0.244 ± 0.022 | 0.16 ± 0.034 | 0.116 ± 0.018 | 0.176 ± 0.044 | 0.25 ± 0.048 |  |
| MDAMB468 BREAST | 1.06 ± 0.052 | 0.995 ± 0.038 | 1.14 ± 0.072 | 1.05 ± 0.035 | 1.15 ± 0.12 | 1.105 ± 0.011 | 0.748 ± 0.04 | 1.02 ± 0.065 | 0.929 ± 0.019 | 0.645 ± 0.025 | 0.379 ± 0.041 | 0.0613 ± 0.007 | 0.0593 ± 0.005 | 0.117 ± 0.016 | 0.177 ± 0.0095 | 0.902 ± 0.06 |
| MFM223 BREAST | 1.44 ± 0.48 | 1.5 ± 0.64 | 1.49 ± 0.59 | 1.48 ± 0.48 | 1.16 ± 0.13 | 1.2 ± 0.039 | 1.16 ± 0.033 | 1.13 ± 0.1 | 1.05 ± 0.066 | 0.905 ± 0.094 | 0.512 ± 0.01 | 0.0818 ± 0.0055 | 0.0723 ± 0.011 | 0.0547 ± 0.00076 | 0.0517 ± 0.0023 | 1.22 ± 0.052 |
| MG63 BONE |  | 1.08 ± 0.041 | 1.12 ± 0.014 | 1.1 ± 0.019 | 1.14 ± 0.045 | 1.1 ± 0.047 |  | 1.02 ± 0.025 | 1 ± 0.043 | 1.06 ± 0.02 | 1 ± 0.023 | 0.07 ± 0.0095 | 0.0503 ± 0.014 | 0.0683 ± 0.0071 | 0.065 ± 0.0046 | 1.07 ± 0.066 |
| MHM BONE | 1.02 ± 0.036 | 1.03 ± 0.035 |  |  | 1.04 ± 0.016 | 1.064 ± 0.001 | 0.998 ± 0.03 | 1.01 ± 0.029 | 0.988 ± 0.029 | 1.022 ± 0.0092 | 1 ± 0.02 | 0.493 ± 0.025 | 0.325 ± 0.029 | 0.22 ± 0.013 | 0.195 ± 0.014 | 1.038 ± 0.01 |
| NCIH441 LUNG | 1.2 ± 0.086 | 1.16 ± 0.14 | 1.09 ± 0.083 | 1.08 ± 0.12 | 1.08 ± 0.067 | 1.11 ± 0.1 | 1.17 ± 0.12 | 1.13 ± 0.13 | 1.11 ± 0.059 | 1.02 ± 0.072 | 0.877 ± 0.029 | 0.4817 ± 0.0045 | 0.422 ± 0.041 | 0.497 ± 0.054 | 0.423 ± 0.044 | 0.992 ± 0.086 |
| NOS1 BONE | 1.22 ± 0.035 |  | 1.24 ± 0.15 | 1.18 ± 0.075 | 1.33 ± 0.045 | 1.14 ± 0.094 | 0.561 ± 0.011 | 0.987 ± 0.04 | 1.1 ± 0.081 | 0.978 ± 0.024 | 0.805 ± 0.024 | 0.287 ± 0.047 | 0.263 ± 0.035 | 0.195 ± 0.017 | 0.188 ± 0.016 | 0.827 ± 0.16 |
| NY BONE | 1.01 ± 0.019 | 0.963 ± 0.029 |  | 1.05 ± 0.037 |  |  |  | 0.994 ± 0.019 | 0.964 ± 0.026 | 0.924 ± 0.075 | 0.437 ± 0.016 | 0.0393 ± 0.0031 | 0.035 ± 0.006 | 0.0417 ± 0.0074 | 0.0433 ± 0.0075 | 0.983 ± 0.01 |
| OS25HAL BONE | 0.997 ± 0.016 | 1.04 ± 0.048 | 1.02 ± 0.024 |  | 1.09 ± 0.063 | 1.17 ± 0.043 | 1 ± 0.035 | 0.97 ± 0.046 | 0.985 ± 0.021 | 1.02 ± 0.024 | 0.912 ± 0.052 | 0.202 ± 0.02 | 0.0833 ± 0.0083 | 0.0677 ± 0.011 | 0.057 ± 0.007 | 1.09 ± 0.027 |
| OSHN BONE | 1.07 ± 0.029 | 1.1 ± 0.016 | 1.1 ± 0.026 | 1.07 ± 0.029 |  | 1.163 ± 0.0072 | 1.1173 ± 0.0011 | 1.07 ± 0.022 | 1.048 ± 0.0086 | 1.09 ± 0.021 | 1.04 ± 0.021 | 0.0367 ± 0.0021 | 0.025 ± 0.001 | 0.026 | 0.0293 ± 0.00058 | 1.161 ± 0.001 |
| PCI30 HEADNECK | 1.05 ± 0.12 |  | 1.12 ± 0.066 | 1.07 ± 0.078 |  | 0.951 ± 0.1 | 0.508 ± 0.029 | 0.994 ± 0.024 | 1.05 ± 0.02 | 0.463 ± 0.054 | 0.228 ± 0.017 | 0.078 ± 0.003 | 0.0933 ± 0.022 | 0.113 ± 0.025 | 0.147 ± 0.025 | 0.538 ± 0.036 |
| RDES SOFT TISSUE | 1.21 ± 0.057 | 1.28 ± 0.14 | 1.12 ± 0.18 | 1.27 ± 0.015 |  | 1.28 ± 0.1 | 1.32 ± 0.1 | 1.23 ± 0.18 | 1.15 ± 0.28 | 1.19 ± 0.18 | 1.24 ± 0.39 | 0.0793 ± 0.0093 | 0.071 ± 0.011 | 0.039 ± 0.0036 | 0.039 ± 0.005 | 1.24 ± 0.025 |
| S68 BREAST | 1.05 ± 0.32 | 1.07 ± 0.37 | 0.808 ± 0.13 | 1.15 ± 0.036 | 1.14 ± 0.25 | 1.11 ± 0.3 | 0.564 ± 0.03 | 1.12 ± 0.4 | 0.785 ± 0.22 | 0.995 ± 0.23 | 0.572 ± 0.26 | 0.155 ± 0.034 | 0.143 ± 0.013 | 0.0783 ± 0.015 | 0.0627 ± 0.0081 | 0.743 ± 0.079 |
| SAOS2 BONE | 1.22 ± 0.066 | 1.2 ± 0.044 | 1.18 ± 0.095 | 1.24 ± 0.035 | 1.26 ± 0.12 | 1.23 ± 0.051 | 1.05 ± 0.075 | 1.12 ± 0.014 | 1.18 ± 0.066 | 1.07 ± 0.06 | 0.812 ± 0.038 | 0.155 ± 0.0063 | 0.0997 ± 0.0029 | 0.11 ± 0.0081 | 0.104 ± 0.032 | 1.09 ± 0.094 |
| SCC36 HEADNECK |  | 0.929 ± 0.089 | 1.06 ± 0.032 | 1.07 ± 0.057 |  | 0.82 ± 0.033 | 0.397 ± 0.038 | 1.09 ± 0.15 | 0.927 ± 0.057 | 1.09 ± 0.093 | 0.819 ± 0.059 | 0.161 ± 0.0035 | 0.135 ± 0.026 | 0.0993 ± 0.011 | 0.1 ± 0.024 | 0.548 ± 0.059 |
| SCC47 HEADNECK | 1.13 ± 0.079 | 1.11 ± 0.015 | 1.231 ± 0.0078 | 1.17 ± 0.092 | 1.15 ± 0.051 | 1.07 ± 0.021 | 0.724 ± 0.037 | 1.09 ± 0.13 | 1.06 ± 0.013 | 0.967 ± 0.055 | 0.693 ± 0.044 | 0.231 ± 0.023 | 0.1977 ± 0.0011 | 0.302 ± 0.022 | 0.289 ± 0.0068 | 0.822 ± 0.052 |
| SCC90 HEADNECK | 1.1 ± 0.091 | 1.1 ± 0.011 | 1.13 ± 0.038 | 1 ± 0.036 | 0.94 ± 0.11 | 0.82 ± 0.086 | 0.534 ± 0.057 | 1.04 ± 0.072 | 1.04 ± 0.06 | 1.01 ± 0.12 | 0.616 ± 0.066 | 0.126 ± 0.0029 | 0.099 ± 0.0066 | 0.097 ± 0.01 | 0.106 ± 0.015 | 0.585 ± 0.049 |
| SG27 HEADNECK | 1 ± 0.036 | 0.979 ± 0.051 | 1.08 ± 0.062 | 1.06 ± 0.16 | 1.2 ± 0.082 | 1.1 ± 0.052 | 1.1 ± 0.065 | 1.17 ± 0.16 | 1.09 ± 0.096 | 1.13 ± 0.12 | 1.08 ± 0.15 | 1.03 ± 0.1 | 1.15 ± 0.018 | 1.26 ± 0.08 | 1.33 ± 0.27 | 1.1 ± 0.037 |
| SG28 HEADNECK | 1.2 ± 0.12 | 1.1 ± 0.021 | 1.13 ± 0.07 |  |  | 1.097 ± 0.0071 | 1.23 ± 0.1 | 1.17 ± 0.22 | 1.04 ± 0.061 | 0.998 ± 0.099 | 0.861 ± 0.13 | 0.589 ± 0.087 | 0.538 ± 0.11 | 0.521 ± 0.016 | 0.542 ± 0.071 | 0.546 ± 0.052 |
